Laboratory results: ChEMBL document CHEMBL2073844, “Pharmacological characterization of the murine and human orthologs of multidrug-resistance protein in transfected human embryonic kidney cells” (Mol Pharmacol, 1997)
Entries after “also recorded” stand apart in the source; their conditions may differ.

Key:
Format in all cases: functional, cell-based
[1] = target: T1, Multidrug resistance-associated protein 1 (Mus musculus, UniProt O35379); assay: TP_TRANSPORTER: efflux in Mrp1-expressing HEK293 cells; settings: human
[2] = target: T2, Multidrug resistance-associated protein 1 (Homo sapiens, UniProt P33527); assay: TP_TRANSPORTER: efflux in MRP1-expressing HEK293 cells
[3] = target: T2, Multidrug resistance-associated protein 1; assay: TP_TRANSPORTER: drug resistance in MRP1-expressing HEK293 cells
[4] = target: T1, Multidrug resistance-associated protein 1; assay: TP_TRANSPORTER: drug resistance in Mrp1-expressing HEK293 cells; settings: human

T1 sequence (O35379 whole entry): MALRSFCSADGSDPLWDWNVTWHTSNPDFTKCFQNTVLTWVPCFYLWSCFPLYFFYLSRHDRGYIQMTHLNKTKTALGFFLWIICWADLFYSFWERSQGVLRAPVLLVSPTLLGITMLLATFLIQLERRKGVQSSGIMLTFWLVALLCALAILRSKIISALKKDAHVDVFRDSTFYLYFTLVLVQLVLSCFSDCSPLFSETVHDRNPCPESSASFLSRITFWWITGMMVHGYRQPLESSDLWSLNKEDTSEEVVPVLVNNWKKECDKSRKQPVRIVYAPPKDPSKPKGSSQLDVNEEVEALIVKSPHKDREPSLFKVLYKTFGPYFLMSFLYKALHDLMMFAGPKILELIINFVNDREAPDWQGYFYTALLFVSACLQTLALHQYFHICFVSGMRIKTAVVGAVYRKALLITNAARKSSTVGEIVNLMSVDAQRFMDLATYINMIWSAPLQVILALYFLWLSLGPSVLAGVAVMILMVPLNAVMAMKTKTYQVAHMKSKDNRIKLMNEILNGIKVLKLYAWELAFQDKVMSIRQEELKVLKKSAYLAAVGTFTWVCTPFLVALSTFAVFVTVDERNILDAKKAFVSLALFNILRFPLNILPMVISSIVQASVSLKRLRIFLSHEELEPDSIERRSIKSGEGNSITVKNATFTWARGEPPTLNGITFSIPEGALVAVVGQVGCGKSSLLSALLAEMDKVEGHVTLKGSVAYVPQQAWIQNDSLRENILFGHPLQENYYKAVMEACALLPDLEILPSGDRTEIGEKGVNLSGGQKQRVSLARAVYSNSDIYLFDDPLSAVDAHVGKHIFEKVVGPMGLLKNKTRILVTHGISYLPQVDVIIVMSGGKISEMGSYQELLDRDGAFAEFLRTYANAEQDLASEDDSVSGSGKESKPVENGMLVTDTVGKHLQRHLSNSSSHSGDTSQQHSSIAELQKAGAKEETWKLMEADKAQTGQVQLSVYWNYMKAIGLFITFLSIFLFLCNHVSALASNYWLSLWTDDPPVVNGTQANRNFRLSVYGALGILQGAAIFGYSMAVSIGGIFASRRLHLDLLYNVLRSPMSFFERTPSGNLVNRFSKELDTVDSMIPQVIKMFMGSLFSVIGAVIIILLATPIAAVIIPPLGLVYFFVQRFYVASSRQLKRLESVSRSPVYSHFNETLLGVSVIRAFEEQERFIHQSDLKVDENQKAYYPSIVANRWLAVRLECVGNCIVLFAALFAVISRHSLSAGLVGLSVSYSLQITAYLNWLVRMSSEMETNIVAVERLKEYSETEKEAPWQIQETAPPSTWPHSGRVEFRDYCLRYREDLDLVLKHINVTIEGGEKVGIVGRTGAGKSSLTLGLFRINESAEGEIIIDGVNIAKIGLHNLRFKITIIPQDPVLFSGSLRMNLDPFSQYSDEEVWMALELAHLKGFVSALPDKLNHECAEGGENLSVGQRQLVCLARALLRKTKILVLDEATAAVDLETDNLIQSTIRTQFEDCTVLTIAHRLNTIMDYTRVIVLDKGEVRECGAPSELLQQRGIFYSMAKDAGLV
T2 sequence (P33527 whole entry): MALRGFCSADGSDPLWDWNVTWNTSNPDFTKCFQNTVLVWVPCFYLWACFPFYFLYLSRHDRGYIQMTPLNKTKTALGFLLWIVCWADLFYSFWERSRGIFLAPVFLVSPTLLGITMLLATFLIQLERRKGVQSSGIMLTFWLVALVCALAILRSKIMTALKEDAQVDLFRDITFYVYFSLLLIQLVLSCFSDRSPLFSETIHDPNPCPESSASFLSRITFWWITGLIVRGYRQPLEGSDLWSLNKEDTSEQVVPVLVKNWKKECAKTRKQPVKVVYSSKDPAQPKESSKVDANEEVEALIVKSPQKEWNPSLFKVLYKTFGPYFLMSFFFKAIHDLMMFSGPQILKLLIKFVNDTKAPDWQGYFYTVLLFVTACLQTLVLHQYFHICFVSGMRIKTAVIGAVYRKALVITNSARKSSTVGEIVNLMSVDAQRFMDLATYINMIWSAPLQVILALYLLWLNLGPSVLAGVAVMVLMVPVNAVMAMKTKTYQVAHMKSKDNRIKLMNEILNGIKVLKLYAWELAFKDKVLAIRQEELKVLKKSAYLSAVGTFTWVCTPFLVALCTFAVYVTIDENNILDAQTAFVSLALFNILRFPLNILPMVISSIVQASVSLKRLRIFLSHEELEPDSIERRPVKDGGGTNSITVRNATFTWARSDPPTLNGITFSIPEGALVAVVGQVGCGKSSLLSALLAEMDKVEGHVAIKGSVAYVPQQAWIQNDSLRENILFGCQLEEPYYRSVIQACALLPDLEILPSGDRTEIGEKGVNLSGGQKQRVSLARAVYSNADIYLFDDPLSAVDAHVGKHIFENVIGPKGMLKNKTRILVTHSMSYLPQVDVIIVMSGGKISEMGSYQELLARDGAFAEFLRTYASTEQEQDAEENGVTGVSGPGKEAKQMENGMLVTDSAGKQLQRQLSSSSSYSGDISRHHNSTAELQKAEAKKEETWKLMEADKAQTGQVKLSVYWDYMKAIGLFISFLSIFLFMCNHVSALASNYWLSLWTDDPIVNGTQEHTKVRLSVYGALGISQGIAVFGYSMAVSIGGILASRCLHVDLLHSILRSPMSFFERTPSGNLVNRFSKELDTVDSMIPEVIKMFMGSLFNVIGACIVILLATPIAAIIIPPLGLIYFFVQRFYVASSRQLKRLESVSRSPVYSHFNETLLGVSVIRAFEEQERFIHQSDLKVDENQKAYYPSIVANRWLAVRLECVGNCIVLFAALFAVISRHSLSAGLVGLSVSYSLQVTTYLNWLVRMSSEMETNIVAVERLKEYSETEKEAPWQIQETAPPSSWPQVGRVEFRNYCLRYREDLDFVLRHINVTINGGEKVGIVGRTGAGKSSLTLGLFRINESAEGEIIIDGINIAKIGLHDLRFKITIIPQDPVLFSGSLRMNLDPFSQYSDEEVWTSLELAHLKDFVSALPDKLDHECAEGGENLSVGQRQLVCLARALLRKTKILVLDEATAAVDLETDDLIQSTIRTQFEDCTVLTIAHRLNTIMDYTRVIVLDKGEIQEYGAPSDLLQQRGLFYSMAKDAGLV

| Activity [1] | Activity [2] | Activity [3] | Activity [4] | SMILES |
| --- | --- | --- | --- | --- |
|  |  | substrate [+] | is not a substrate [-] | COc1cccc2c1C(=O)c1c(O)c3c(c(O)c1C2=O)C[C@@](O)(C(=O)CO)C[C@@H]3O[C@H]1C[C@H](N)[C@@H](O)[C@H](C)O1 [EPIRUBICIN] |
|  |  | substrate [+] | is not a substrate [-] | COc1cccc2c1C(=O)c1c(O)c3c(c(O)c1C2=O)C[C@@](O)(C(=O)CO)C[C@@H]3O[C@H]1C[C@H](N)[C@H](O)[C@H](C)O1 [DOXORUBICIN] |

The remaining lines, values behind:

| SMILES | Activity [1] | Activity [2] | Activity [3] | Activity [4] |
| --- | --- | --- | --- | --- |
| COc1cc([C@@H]2c3cc4c(cc3[C@@H](O[C@@H]3O[C@@H]5CO[C@@H](C)O[C@H]5[C@H](O)[C@H]3O)[C@H]3COC(=O)[C@H]23)OCO4)cc(OC)c1O [ETOPOSIDE] | substrate [+] | substrate [+] |  |  |
| CC[C@]1(O)C[C@H]2CN(CCc3c([nH]c4ccccc34)[C@@](C(=O)OC)(c3cc4c(cc3OC)N(C=O)[C@H]3[C@@](O)(C(=O)OC)[C@H](OC(C)=O)[C@]5(CC)C=CCN6CC[C@]43[C@@H]65)C2)C1 [VINCRISTINE] | substrate [+] |  |  |  |
| COc1cc2c(c(OC)c1OC)-c1ccc(OC)c(=O)cc1[C@@H](NC(C)=O)CC2 [COLCHICINE] |  |  |  | substrate [+]; also recorded: is not a substrate [-] |
